The text below walks through data of patent publication US4656161A, “Increasing the enteral absorbability of heparin or heparinoids” (BASF Aktiengesellschaft, priority 1983, dated 1987).

A short description of data set [1]: Heparin/heparinoid concentration in blood after oral administration of capsules to beagles (citrated plasma, chromogenic substrate). Type of data set: in vivo, beagle dogs. The note with it: for heparin or heparinoid concentration in the blood, without surfactant (in words): without the addition of a surfactant; for heparin level in the blood, without surfactant: in the absence of added surfactant. Here is the method:
(§1) A. 2 of the capsules obtained as described in Examples 1a-1d or 3a-3b (total dose 28,000 IU of heparin or 700 mg of heparinoid) were administered orally to each of a number of beagles weighing about 7 kg. The concentration of active compound in the blood of the dogs was determined before and 30 minutes, 1 hour and 2, 3, 5, 8, 14 and 24 hours after the administration of heparin. The heparin was determined in citrated plasma, using a chromogenic substrate (cf. Thromb. Res. 8 (1976), 413 and Volume 2 of Reports, Thrombosis and Hemostasis Congress, Munster, 1982, Schattauer Verlag, Stuttgart, pages 238-246). The thrombin time was also determined (cf. Kleiner Gerinnungstatus, published by Behringwerke, 1982, page 40). The heparin or heparinoid concentration (c) in the blood and the quotient T of the thrombin time of the treated animals to that of the untreated animals reached their highest values after 2 hours.
(§2) Since, in contrast to heparin, heparinoids prolong the bleeding time (in this case the thrombin time) only slightly, if at all, they are not standardized on the basis of anticoagulant activity.

For another data set, the system named is thrombin time. Put plainly: Thrombin time after oral administration of capsules to beagles. Type of data set: in vivo, beagle dogs. The note with it: without the addition of a surfactant. As to the method:
as §1, §2

heparin [heparin used in Example 1a]: the “heparin or heparinoid concentration in the blood, without surfactant (in words)” value in data set [1] is on record as “did not result in a measurable heparin or heparinoid concentration in the blood”. In the data set with thrombin time, the “thrombin time, without surfactant (in words)” value is listed as “did not change the thrombin time”.
The like results for heparin [heparin used in Example 1b] were, in that order, “did not result in a measurable heparin or heparinoid concentration in the blood” and “did not change the thrombin time”.
As for heparin [heparin used in Example 1c], the “heparin level in the blood, without surfactant” value in data set [1] is 0.15 IU/ml. Moreover, in the data set with thrombin time, the “thrombin time, without surfactant (in words)” value is recorded as “no change in the thrombin time”.
The like results for heparin [heparin used in Example 1d] were, in that order, 0.25 IU/ml and “no change in the thrombin time”.
“mucopolysaccharide polysulfate [heparinoid used in Example 3b]”: the “heparin or heparinoid concentration in the blood, without surfactant (in words)” value in data set [1] is listed as “did not result in a measurable heparin or heparinoid concentration in the blood”. In addition, the “thrombin time, without surfactant (in words)” value with thrombin time is given as “did not change the thrombin time”.
The like results for “sodium pentosan polysulfate [heparinoid used in Example 3a]” were, in that order, “did not result in a measurable heparin or heparinoid concentration in the blood” and “did not change the thrombin time”.
